Reference: PubChem BioAssay AID1963960 (Molecular Pharmacology Branch, DTP, NCI, 2024)

System: MDA-MB-468 spheroids with HUVEC/MSC, viability
Experiment: Anticancer human tumor MDA-MB-468 cell line growth inhibition [PI3K];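 further: spheroids exposed to agents for seven days before readout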;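 on viability, T/C: 100% = DMSO vehicle control viability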
Settings: for IC50: curve of first compound; for viability, T/C: stronger effect = lower value
Summary of the method: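 Stroma-containing spheroids: tumor line, pooled-donor HUVEC, hMSC. Treatments: targeted agents with PI3K inhibitors. Dosing: clinically relevant, half-log spacing, 10 microM ceiling without known Cmax. Read-out: cell viability.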

[1] = second compound 0.0316 µM, first compound 0.0316 µM
[2] = second compound 0.0316 µM, first compound 0.1 µM
[3] = second compound 0.0316 µM, first compound 0.316 µM
[4] = second compound 0.0316 µM, first compound 1 µM
[5] = second compound 0.0316 µM, first compound 3.16 µM
[6] = second compound 0.0316 µM, first compound 10 µM
[7] = second compound 0.1 µM, first compound 0.0316 µM
[8] = second compound 0.1 µM, first compound 0.1 µM
[9] = second compound 0.1 µM, first compound 0.316 µM
[10] = second compound 0.1 µM, first compound 1 µM
[11] = second compound 0.1 µM, first compound 3.16 µM
[12] = second compound 0.1 µM, first compound 10 µM
[13] = second compound 0.316 µM, first compound 0.0316 µM
[14] = second compound 0.316 µM, first compound 0.1 µM
[15] = second compound 0.316 µM, first compound 0.316 µM
[16] = second compound 0.316 µM, first compound 1 µM
[17] = second compound 0.316 µM, first compound 3.16 µM
[18] = second compound 0.316 µM, first compound 10 µM
[19] = second compound 1 µM, first compound 0.0316 µM
[20] = second compound 1 µM, first compound 0.1 µM
[21] = second compound 1 µM, first compound 0.316 µM
[22] = second compound 1 µM, first compound 1 µM
[23] = second compound 1 µM, first compound 3.16 µM
[24] = second compound 1 µM, first compound 10 µM
[25] = second compound 3.16 µM, first compound 0.0316 µM
[26] = second compound 3.16 µM, first compound 0.1 µM
[27] = second compound 3.16 µM, first compound 0.316 µM
[28] = second compound 3.16 µM, first compound 1 µM
[29] = second compound 3.16 µM, first compound 3.16 µM
[30] = second compound 3.16 µM, first compound 10 µM
[31] = second compound 10 µM, first compound 0.0316 µM
[32] = second compound 10 µM, first compound 0.1 µM
[33] = second compound 10 µM, first compound 0.316 µM
[34] = second compound 10 µM, first compound 1 µM
[35] = second compound 10 µM, first compound 3.16 µM
[36] = second compound 10 µM, first compound 10 µM
[37] = second compound 0.00316 µM, first compound 0.0316 µM
[38] = second compound 0.00316 µM, first compound 0.1 µM
[39] = second compound 0.00316 µM, first compound 0.316 µM
[40] = second compound 0.00316 µM, first compound 1 µM
[41] = second compound 0.00316 µM, first compound 3.16 µM
[42] = second compound 0.00316 µM, first compound 10 µM
[43] = second compound 0.01 µM, first compound 0.0316 µM
[44] = second compound 0.01 µM, first compound 0.1 µM
[45] = second compound 0.01 µM, first compound 0.316 µM
[46] = second compound 0.01 µM, first compound 1 µM
[47] = second compound 0.01 µM, first compound 3.16 µM
[48] = second compound 0.01 µM, first compound 10 µM

SMILES: CC1(C)CCC(Nc2ncc(C(F)(F)F)c(-c3c[nH]c4c(P(C)(C)=O)c(C#N)ccc34)n2)CN1 (stereo not drawn) + CC(Nc1ncnc2nc[nH]c12)c1cc2cccc(Cl)c2c(=O)n1-c1ccccc1
- IC50 (second compound 0.0316 µM): < 0.0316 µM
- IC50 (second compound 0.1 µM): < 0.0316 µM
- IC50 (second compound 0.316 µM): < 0.0316 µM
- IC50 (second compound 1 µM): < 0.0316 µM
- IC50 (second compound 3.16 µM): < 0.0316 µM
- IC50 (second compound 10 µM): < 0.0316 µM
- viability, T/C [1]: 11.2%
- viability, T/C [2]: 8.83%
- viability, T/C [3]: 8.44%
- viability, T/C [4]: 8.51%
- viability, T/C [5]: 9.51%
- viability, T/C [6]: 1.74%
- viability, T/C [7]: 12.5%
- viability, T/C [8]: 11.6%
- viability, T/C [9]: 8.64%
- viability, T/C [10]: 8.66%
- viability, T/C [11]: 8.77%
- viability, T/C [12]: 1.45%
- viability, T/C [13]: 11.2%
- viability, T/C [14]: 11%
- viability, T/C [15]: 9.67%
- viability, T/C [16]: 8.74%
- viability, T/C [17]: 9.29%
- viability, T/C [18]: 1.74%
- viability, T/C [19]: 12.8%
- viability, T/C [20]: 10.6%
- viability, T/C [21]: 9.64%
- viability, T/C [22]: 9.48%
- viability, T/C [23]: 9.76%
- viability, T/C [24]: 1.16%
- viability, T/C [25]: 11.8%
- viability, T/C [26]: 10.2%
- viability, T/C [27]: 11.1%
- viability, T/C [28]: 9.71%
- viability, T/C [29]: 7.09%
- viability, T/C [30]: 1.3%
- viability, T/C [31]: 12.6%
- viability, T/C [32]: 10.8%
- viability, T/C [33]: 10%
- viability, T/C [34]: 10%
- viability, T/C [35]: 7.06%
- viability, T/C [36]: 1.03%

SMILES: CNC(=O)c1ccc(N2C(=S)N(c3ccc(C#N)c(C(F)(F)F)c3)C(=O)C2(C)C)cc1F + Cc1nc(NC(=O)N2CCCC2C(N)=O)sc1-c1ccnc(C(C)(C)C(F)(F)F)c1
- IC50 (second compound 0.0316 µM): > 10 µM
- IC50 (second compound 0.1 µM): > 10 µM
- IC50 (second compound 0.316 µM): > 10 µM
- IC50 (second compound 1 µM): > 10 µM
- IC50 (second compound 3.16 µM): 4.9 µM
- IC50 (second compound 10 µM): < 0.0316 µM
- viability, T/C [1]: 96.8%
- viability, T/C [2]: 97.2%
- viability, T/C [3]: 83.9%
- viability, T/C [4]: 114%
- viability, T/C [5]: 97.4%
- viability, T/C [6]: 62.5%
- viability, T/C [7]: 92.4%
- viability, T/C [8]: 101%
- viability, T/C [9]: 96.2%
- viability, T/C [10]: 106%
- viability, T/C [11]: 82.8%
- viability, T/C [12]: 52.2%
- viability, T/C [13]: 99.8%
- viability, T/C [14]: 78.2%
- viability, T/C [15]: 73.3%
- viability, T/C [16]: 103%
- viability, T/C [17]: 74.6%
- viability, T/C [18]: 59%
- viability, T/C [19]: 97%
- viability, T/C [20]: 76.9%
- viability, T/C [21]: 67.4%
- viability, T/C [22]: 90.5%
- viability, T/C [23]: 59.2%
- viability, T/C [24]: 58%
- viability, T/C [25]: 79.8%
- viability, T/C [26]: 64.5%
- viability, T/C [27]: 65.3%
- viability, T/C [28]: 74.8%
- viability, T/C [29]: 49.4%
- viability, T/C [30]: 42.5%
- viability, T/C [31]: 39.8%
- viability, T/C [32]: 28.3%
- viability, T/C [33]: 35.4%
- viability, T/C [34]: 29.4%
- viability, T/C [35]: 25.2%
- viability, T/C [36]: 25.6%

SMILES: C#Cc1c(F)ccc2cc(O)cc(-c3ncc4c(N5CC6CCC(C5)N6)nc(OCC56CCCN5CC(F)C6)nc4c3F)c12 (stereo not drawn) + COc1c(OCCCN2CCOCC2)ccc2c3n(c(=NC(=O)c4cnc(N)nc4)nc12)CCN3
- IC50 (second compound 0.00316 µM): > 10 µM
- IC50 (second compound 0.01 µM): > 10 µM
- IC50 (second compound 0.0316 µM): 7.83 µM
- IC50 (second compound 0.1 µM): 3.67 µM
- IC50 (second compound 0.316 µM): < 0.0316 µM
- IC50 (second compound 1 µM): < 0.0316 µM
- viability, T/C [37]: 89.4%
- viability, T/C [38]: 82.8%
- viability, T/C [39]: 96.7%
- viability, T/C [40]: 96.8%
- viability, T/C [41]: 84.5%
- viability, T/C [42]: 56.9%
- viability, T/C [43]: 72.7%
- viability, T/C [44]: 91.3%
- viability, T/C [45]: 87%
- viability, T/C [46]: 87%
- viability, T/C [47]: 77.7%
- viability, T/C [48]: 61%
- viability, T/C [1]: 76.5%
- viability, T/C [2]: 68.8%
- viability, T/C [3]: 74.2%
- viability, T/C [4]: 83.9%
- viability, T/C [5]: 72.4%
- viability, T/C [6]: 43.7%
- viability, T/C [7]: 53.9%
- viability, T/C [8]: 52%
- viability, T/C [9]: 61.3%
- viability, T/C [10]: 61.8%
- viability, T/C [11]: 52.8%
- viability, T/C [12]: 24.6%
- viability, T/C [13]: 25.1%
- viability, T/C [14]: 23%
- viability, T/C [15]: 25.9%
- viability, T/C [16]: 27.2%
- viability, T/C [17]: 20.1%
- viability, T/C [18]: 6.75%
- viability, T/C [19]: 2.58%
- viability, T/C [20]: 2.36%
- viability, T/C [21]: 2.21%
- viability, T/C [22]: 2.61%
- viability, T/C [23]: 1.99%
- viability, T/C [24]: 0.74%

SMILES: CCCS(=O)(=O)Nc1ccc(F)c(C(=O)c2c[nH]c3ncc(-c4ccc(Cl)cc4)cc23)c1F + COc1c(OCCCN2CCOCC2)ccc2c3n(c(=NC(=O)c4cnc(N)nc4)nc12)CCN3
- IC50 (second compound 0.00316 µM): 5.17 µM
- IC50 (second compound 0.01 µM): 5.38 µM
- IC50 (second compound 0.0316 µM): 4.5 µM
- IC50 (second compound 0.1 µM): 2.11 µM
- IC50 (second compound 0.316 µM): < 0.0316 µM
- IC50 (second compound 1 µM): < 0.0316 µM
- viability, T/C [37]: 84.8%
- viability, T/C [38]: 102%
- viability, T/C [39]: 84.6%
- viability, T/C [40]: 102%
- viability, T/C [41]: 74.1%
- viability, T/C [42]: 17.9%
- viability, T/C [43]: 84.2%
- viability, T/C [44]: 82.3%
- viability, T/C [45]: 93.9%
- viability, T/C [46]: 84.3%
- viability, T/C [47]: 75.6%
- viability, T/C [48]: 20%
- viability, T/C [1]: 74.1%
- viability, T/C [2]: 78.2%
- viability, T/C [3]: 76.5%
- viability, T/C [4]: 74.3%
- viability, T/C [5]: 64.9%
- viability, T/C [6]: 16.2%
- viability, T/C [7]: 55.8%
- viability, T/C [8]: 56.5%
- viability, T/C [9]: 64.7%
- viability, T/C [10]: 59.1%
- viability, T/C [11]: 45.2%
- viability, T/C [12]: 12.3%
- viability, T/C [13]: 28.1%
- viability, T/C [14]: 29.7%
- viability, T/C [15]: 29.1%
- viability, T/C [16]: 27.6%
- viability, T/C [17]: 26.6%
- viability, T/C [18]: 8.09%
- viability, T/C [19]: 4.14%
- viability, T/C [20]: 4.88%
- viability, T/C [21]: 4.04%
- viability, T/C [22]: 5.95%
- viability, T/C [23]: 5.41%
- viability, T/C [24]: 3.73%
